Test results as given in BindingDB's records for doi:10.1021/jm701199p (Eli Lilly, 2008).

Each compound was assayed against T1, TGF-beta receptor type-1 [4-503,T204D] (Homo sapiens, UniProt P36897, T204D) (assay: Enzyme Assay and Luciferase Reporter Assay). Settings: pH 7.5; 30 °C.
T1 construct: 4-503

| EC50 [nM] | SMILES |
| --- | --- |
| > 20000 | CCSc1cc(-c2c(-c3ccccn3)nn3c2CCC3)c2ccccc2n1 [2-(ethylsulfanyl)-4-[2-(pyridin-2-yl)-4H,5H,6H-pyrrolo[1,2-a]pyrazol-3-yl]quinoline] |
| > 20000 | Clc1cc(-c2c(-c3ccccn3)nn3c2CCC3)c2ccccc2n1 [2-chloro-4-[2-(pyridin-2-yl)-4H,5H,6H-pyrrolo[1,2-a]pyrazol-3-yl]quinoline] |
| > 20000 | O=C(O)c1ccc(Oc2ccc3c(-c4c(-c5ccccn5)nn5c4CCC5)ccnc3c2)cc1 [4-({4-[2-(pyridin-2-yl)-4H,5H,6H-pyrrolo[1,2-a]pyrazol-3-yl]quinolin-7-yl}oxy)benzoic acid] |
| 201 | Cc1cccc(-c2nn3c(c2-c2ccnc4ccc(OC(F)(F)F)cc24)CCC3)n1 [4-[2-(6-methylpyridin-2-yl)-4H,5H,6H-pyrrolo[1,2-a]pyrazol-3-yl]-6-(trifluoromethoxy)quinoline] |
| > 20000 | c1ccc(-c2nn3c(c2-c2cc(N4CCCC4)nc4ccccc24)CCC3)nc1 [4-[2-(pyridin-2-yl)-4H,5H,6H-pyrrolo[1,2-a]pyrazol-3-yl]-2-(pyrrolidin-1-yl)quinoline] |
| 200 | Oc1ccc2c(-c3c(-c4ccccn4)nn4c3CCC4)ccnc2c1 [4-[2-(pyridin-2-yl)-4H,5H,6H-pyrrolo[1,2-a]pyrazol-3-yl]quinolin-7-ol] |
| 7200 | COc1cc(OC)c2nccc(-c3c(-c4cccc(C)n4)nn4c3CCC4)c2c1 [6,8-dimethoxy-4-[2-(6-methylpyridin-2-yl)-4H,5H,6H-pyrrolo[1,2-a]pyrazol-3-yl]quinoline] |
| 55 | Cc1cccc(-c2nn3c(c2-c2ccnc4ccc(Br)cc24)CCC3)n1 [6-bromo-4-[2-(6-methylpyridin-2-yl)-4H,5H,6H-pyrrolo[1,2-a]pyrazol-3-yl]quinoline] |
| 66 | ClCCOc1ccc2c(-c3c(-c4ccccn4)nn4c3CCC4)ccnc2c1 [7-(2-chloroethoxy)-4-[2-(pyridin-2-yl)-4H,5H,6H-pyrrolo[1,2-a]pyrazol-3-yl]quinoline] |
| 80 | c1ccc(-c2nn3c(c2-c2ccnc4cc(OCC5CCCO5)ccc24)CCC3)nc1 (stereo not given) [7-(oxolan-2-ylmethoxy)-4-[2-(pyridin-2-yl)-4H,5H,6H-pyrrolo[1,2-a]pyrazol-3-yl]quinoline] |
| 951 | Cc1cccc(-c2nn3c(c2-c2ccnc4c(F)cccc24)CCC3)n1 [8-fluoro-4-[2-(6-methylpyridin-2-yl)-4H,5H,6H-pyrrolo[1,2-a]pyrazol-3-yl]quinoline] |
| 15000 | CN(C)C(=O)c1ccc(Oc2ccc3c(-c4c(-c5ccccn5)nn5c4CCC5)ccnc3c2)cc1 [N,N-dimethyl-4-({4-[2-(pyridin-2-yl)-4H,5H,6H-pyrrolo[1,2-a]pyrazol-3-yl]quinolin-7-yl}oxy)benzamide] |
| 468 | Cc1cccc(-c2nn3c(c2-c2ccnc4ccc(C(=O)NCCN(C)C)cc24)CCC3)n1 [N-[2-(dimethylamino)ethyl]-4-[2-(6-methylpyridin-2-yl)-4H,5H,6H-pyrrolo[1,2-a]pyrazol-3-yl]quinoline-6-carboxamide] |
| 24 | CN(C)CCCCCOc1ccc2c(-c3c(-c4ccccn4)nn4c3CCC4)ccnc2c1 [dimethyl[5-({4-[2-(pyridin-2-yl)-4H,5H,6H-pyrrolo[1,2-a]pyrazol-3-yl]quinolin-7-yl}oxy)pentyl]amine] |
| 61 | CCN(C)CCOc1ccc2c(-c3c(-c4ccccn4)nn4c3CCC4)ccnc2c1 [ethyl(methyl)[2-({4-[2-(pyridin-2-yl)-4H,5H,6H-pyrrolo[1,2-a]pyrazol-3-yl]quinolin-7-yl}oxy)ethyl]amine] |
| 403 | COC(=O)c1ccc2nccc(-c3c(-c4cccc(C)n4)nn4c3CCC4)c2c1 [methyl 4-[2-(6-methylpyridin-2-yl)-4H,5H,6H-pyrrolo[1,2-a]pyrazol-3-yl]quinoline-6-carboxylate] |

| SMILES | EC50 [nM] |
| --- | --- |
| CN1CCN(C(=O)COc2ccc3c(-c4c(-c5ccccn5)nn5c4CCC5)ccnc3c2)CC1 [1-(4-methylpiperazin-1-yl)-2-({4-[2-(pyridin-2-yl)-4H,5H,6H-pyrrolo[1,2-a]pyrazol-3-yl]quinolin-7-yl}oxy)ethan-1-one] | 260 |
| CN1CCN(CCOc2ccc3c(-c4c(-c5ccccn5)nn5c4CCC5)ccnc3c2)CC1 [7-[2-(4-methylpiperazin-1-yl)ethoxy]-4-[2-(pyridin-2-yl)-4H,5H,6H-pyrrolo[1,2-a]pyrazol-3-yl]quinoline] | 38 |
| CN1CCCC1CCCOc1ccc2c(-c3c(-c4ccccn4)nn4c3CCC4)ccnc2c1 (stereo not given) [7-[3-(1-methylpyrrolidin-2-yl)propoxy]-4-[2-(pyridin-2-yl)-4H,5H,6H-pyrrolo[1,2-a]pyrazol-3-yl]quinoline] | 17 |
| CN1CCN(CCCOc2ccc3c(-c4c(-c5ccccn5)nn5c4CCC5)ccnc3c2)CC1 [7-[3-(4-methylpiperazin-1-yl)propoxy]-4-[2-(pyridin-2-yl)-4H,5H,6H-pyrrolo[1,2-a]pyrazol-3-yl]quinoline] | 44 |
